Columns and labels:
[1] = target: Tyrosine-protein kinase receptor UFO (Homo sapiens) (UniProt P30530); conditions: Compound concentration 1000.0 nM
[2] = target: BMP-2-inducible protein kinase (Homo sapiens) (UniProt Q9NSY1); conditions: Compound concentration 1000.0 nM
[3] = target: Serine/threonine-protein kinase BRSK2 (Homo sapiens) (UniProt Q8IWQ3); conditions: Compound concentration 1000.0 nM
[4] = target: Calcium/calmodulin-dependent protein kinase type II subunit alpha (Homo sapiens) (UniProt Q9UQM7); conditions: Compound concentration 1000.0 nM
[5] = target: Calcium/calmodulin-dependent protein kinase kinase 2 (Homo sapiens) (UniProt Q96RR4); conditions: Compound concentration 1000.0 nM
[6] = target: Cyclin-dependent kinase 11B (Homo sapiens) (UniProt P21127); conditions: Compound concentration 1000.0 nM
[7] = target: Cyclin-dependent kinase 19 (Homo sapiens) (UniProt Q9BWU1); conditions: Compound concentration 1000.0 nM
[8] = target: Macrophage colony-stimulating factor 1 receptor (Homo sapiens) (UniProt P07333); conditions: Compound concentration 1000.0 nM
[9] = target: Macrophage colony-stimulating factor 1 receptor (Homo sapiens) (UniProt P07333); conditions: Compound concentration 1000.0 nM; remark: listed apart in the source
[10] = target: Megakaryocyte-associated tyrosine-protein kinase (Homo sapiens) (UniProt P42679); conditions: Compound concentration 1000.0 nM
[11] = target: Serine/threonine-protein kinase DCLK2 (Homo sapiens) (UniProt Q8N568); conditions: Compound concentration 1000.0 nM
[12] = tested on: Epidermal growth factor receptor (Homo sapiens), P00533 [UNDEFINED MUTATION]; conditions: Compound concentration 1000.0 nM
[13] = tested on: Epidermal growth factor receptor (Homo sapiens), P00533 [L858R]; conditions: Compound concentration 1000.0 nM
[14] = tested on: Epidermal growth factor receptor (Homo sapiens), P00533 [T790M]; conditions: Compound concentration 1000.0 nM
[15] = target: Ephrin type-B receptor 1 (Homo sapiens) (UniProt P54762); conditions: Compound concentration 1000.0 nM
[16] = target: Tyrosine-protein kinase Fgr (Homo sapiens) (UniProt P09769); conditions: Compound concentration 1000.0 nM
[17] = tested on: Receptor-type tyrosine-protein kinase FLT3 (Homo sapiens), P36888 [D835H]; conditions: Compound concentration 1000.0 nM
[18] = tested on: eIF-2-alpha kinase GCN2 (Homo sapiens), Q9P2K8 [S808G]; conditions: Compound concentration 1000.0 nM
[19] = target: Rhodopsin kinase GRK1 (Homo sapiens) (UniProt Q15835); conditions: Compound concentration 1000.0 nM
[20] = target: Beta-adrenergic receptor kinase 1 (Homo sapiens) (UniProt P25098); conditions: Compound concentration 1000.0 nM
[21] = target: Mitogen-activated protein kinase 9 (Homo sapiens) (UniProt P45984); conditions: Compound concentration 1000.0 nM
[22] = target: Mitogen-activated protein kinase kinase kinase kinase 3 (Homo sapiens) (UniProt Q8IVH8); conditions: Compound concentration 1000.0 nM
[23] = target: Dual specificity mitogen-activated protein kinase kinase 4 (Homo sapiens) (UniProt P45985); conditions: Compound concentration 1000.0 nM
[24] = target: Serine/threonine-protein kinase 3 (Homo sapiens) (UniProt Q13188); conditions: Compound concentration 1000.0 nM
[25] = target: Serine/threonine-protein kinase 24 (Homo sapiens) (UniProt Q9Y6E0); conditions: Compound concentration 1000.0 nM
[26] = target: Cyclin-dependent kinase 15 (Homo sapiens) (UniProt Q96Q40); conditions: Compound concentration 1000.0 nM
[27] = target: Phosphatidylinositol 5-phosphate 4-kinase type-2 gamma (Homo sapiens) (UniProt Q8TBX8); conditions: Compound concentration 1000.0 nM
[28] = target: Membrane-associated tyrosine- and threonine-specific cdc2-inhibitory kinase (Homo sapiens) (UniProt Q99640); conditions: Compound concentration 1000.0 nM
[29] = target: Serine/threonine-protein kinase PknB (Mycobacterium tuberculosis) (UniProt P9WI81); conditions: Compound concentration 1000.0 nM
[30] = target: Serine/threonine-protein kinase PLK1 (Homo sapiens) (UniProt P53350); conditions: Compound concentration 1000.0 nM
[31] = target: Protein kinase C epsilon type (Homo sapiens) (UniProt Q02156); conditions: Compound concentration 1000.0 nM
[32] = target: Proto-oncogene tyrosine-protein kinase ROS (Homo sapiens) (UniProt P08922); conditions: Compound concentration 1000.0 nM
[33] = target: STE20-like serine/threonine-protein kinase (Homo sapiens) (UniProt Q9H2G2); conditions: Compound concentration 1000.0 nM
[34] = target: SRSF protein kinase 1 (Homo sapiens) (UniProt Q96SB4); conditions: Compound concentration 1000.0 nM
[35] = target: Serine/threonine-protein kinase 33 (Homo sapiens) (UniProt Q9BYT3); conditions: Compound concentration 1000.0 nM
[36] = target: Tyrosine-protein kinase Tec (Homo sapiens) (UniProt P42680); conditions: Compound concentration 1000.0 nM
[37] = target: Serine/threonine-protein kinase ULK3 (Homo sapiens) (UniProt Q6PHR2); conditions: Compound concentration 1000.0 nM
[38] = target: Serine/threonine-protein kinase WNK4 (Homo sapiens) (UniProt Q96J92); conditions: Compound concentration 1000.0 nM
[39] = target: Mitogen-activated protein kinase kinase kinase 19 (Homo sapiens) (UniProt Q56UN5); conditions: Compound concentration 1000.0 nM
[40] = target: Tyrosine-protein kinase ZAP-70 (Homo sapiens) (UniProt P43403); conditions: Compound concentration 1000.0 nM
[41] = target: 5-hydroxytryptamine receptor 1B (Homo sapiens) (UniProt P28222); conditions: Compound concentration 10.0 uM
[42] = target: 5-hydroxytryptamine receptor 1D (Homo sapiens) (UniProt P28221); conditions: Compound concentration 10.0 uM
[43] = target: 5-hydroxytryptamine receptor 3A (Homo sapiens) (UniProt P46098); conditions: Compound concentration 10.0 uM
[44] = target: Alpha-2B adrenergic receptor (Homo sapiens) (UniProt P18089); conditions: Compound concentration 10.0 uM
[45] = target: Muscarinic acetylcholine receptor M5 (Homo sapiens) (UniProt P08912); conditions: Compound concentration 10.0 uM
[46] = species: Rattus norvegicus; conditions: Compound concentration 10.0 uM

Chain of Macrophage colony-stimulating factor 1 receptor (Homo sapiens) (P07333 whole entry): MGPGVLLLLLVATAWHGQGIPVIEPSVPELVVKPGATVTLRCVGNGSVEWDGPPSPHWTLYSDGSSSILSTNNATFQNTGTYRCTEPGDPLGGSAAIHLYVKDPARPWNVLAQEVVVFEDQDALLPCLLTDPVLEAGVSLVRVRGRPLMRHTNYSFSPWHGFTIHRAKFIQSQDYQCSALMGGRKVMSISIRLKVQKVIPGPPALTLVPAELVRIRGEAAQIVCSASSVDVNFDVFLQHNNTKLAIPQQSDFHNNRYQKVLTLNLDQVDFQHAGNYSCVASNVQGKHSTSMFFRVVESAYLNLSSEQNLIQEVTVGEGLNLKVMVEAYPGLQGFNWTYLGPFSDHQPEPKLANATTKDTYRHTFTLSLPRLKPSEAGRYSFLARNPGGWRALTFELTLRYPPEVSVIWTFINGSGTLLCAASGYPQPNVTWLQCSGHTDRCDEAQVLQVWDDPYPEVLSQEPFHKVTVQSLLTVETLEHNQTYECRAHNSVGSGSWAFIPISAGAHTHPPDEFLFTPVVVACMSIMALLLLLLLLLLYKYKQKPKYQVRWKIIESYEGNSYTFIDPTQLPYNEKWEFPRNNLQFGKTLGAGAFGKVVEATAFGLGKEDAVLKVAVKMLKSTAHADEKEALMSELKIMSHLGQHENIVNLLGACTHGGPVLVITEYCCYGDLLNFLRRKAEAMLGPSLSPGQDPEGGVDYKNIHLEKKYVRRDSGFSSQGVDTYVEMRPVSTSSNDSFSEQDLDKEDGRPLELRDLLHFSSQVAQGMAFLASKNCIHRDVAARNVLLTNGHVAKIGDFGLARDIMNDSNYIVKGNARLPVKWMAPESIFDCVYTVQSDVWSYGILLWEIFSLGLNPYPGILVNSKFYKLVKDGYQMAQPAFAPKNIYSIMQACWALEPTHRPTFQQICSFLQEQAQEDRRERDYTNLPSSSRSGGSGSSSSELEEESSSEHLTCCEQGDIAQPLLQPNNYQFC
Chain of Mitogen-activated protein kinase 9 (Homo sapiens) (P45984 whole entry, looked up): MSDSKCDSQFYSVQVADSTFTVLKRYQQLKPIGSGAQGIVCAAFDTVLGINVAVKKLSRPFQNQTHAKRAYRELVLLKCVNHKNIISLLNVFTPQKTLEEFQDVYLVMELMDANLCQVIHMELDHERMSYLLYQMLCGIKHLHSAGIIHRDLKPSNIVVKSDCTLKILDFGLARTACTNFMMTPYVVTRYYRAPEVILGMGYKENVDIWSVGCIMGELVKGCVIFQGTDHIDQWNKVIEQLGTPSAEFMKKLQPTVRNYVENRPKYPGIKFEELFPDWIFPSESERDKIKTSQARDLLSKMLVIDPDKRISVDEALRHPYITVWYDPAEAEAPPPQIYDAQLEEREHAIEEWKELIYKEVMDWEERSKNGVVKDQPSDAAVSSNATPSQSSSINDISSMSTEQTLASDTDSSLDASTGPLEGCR
Chain of Muscarinic acetylcholine receptor M5 (Homo sapiens) (P08912 whole entry): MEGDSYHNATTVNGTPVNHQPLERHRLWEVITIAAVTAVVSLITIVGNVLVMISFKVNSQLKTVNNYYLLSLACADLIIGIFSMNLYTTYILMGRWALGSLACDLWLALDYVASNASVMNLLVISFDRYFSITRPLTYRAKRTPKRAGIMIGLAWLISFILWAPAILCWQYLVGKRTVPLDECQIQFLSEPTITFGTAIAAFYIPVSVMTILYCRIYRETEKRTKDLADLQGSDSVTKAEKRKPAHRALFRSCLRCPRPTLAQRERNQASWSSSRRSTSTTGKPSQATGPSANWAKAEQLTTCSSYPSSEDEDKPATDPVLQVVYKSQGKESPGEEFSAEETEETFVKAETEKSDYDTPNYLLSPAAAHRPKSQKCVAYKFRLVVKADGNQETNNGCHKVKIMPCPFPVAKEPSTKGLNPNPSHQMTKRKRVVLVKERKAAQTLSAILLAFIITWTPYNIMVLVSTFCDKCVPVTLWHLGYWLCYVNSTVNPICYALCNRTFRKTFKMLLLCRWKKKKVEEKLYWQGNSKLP
Chain of Megakaryocyte-associated tyrosine-protein kinase (Homo sapiens) (P42679 whole entry): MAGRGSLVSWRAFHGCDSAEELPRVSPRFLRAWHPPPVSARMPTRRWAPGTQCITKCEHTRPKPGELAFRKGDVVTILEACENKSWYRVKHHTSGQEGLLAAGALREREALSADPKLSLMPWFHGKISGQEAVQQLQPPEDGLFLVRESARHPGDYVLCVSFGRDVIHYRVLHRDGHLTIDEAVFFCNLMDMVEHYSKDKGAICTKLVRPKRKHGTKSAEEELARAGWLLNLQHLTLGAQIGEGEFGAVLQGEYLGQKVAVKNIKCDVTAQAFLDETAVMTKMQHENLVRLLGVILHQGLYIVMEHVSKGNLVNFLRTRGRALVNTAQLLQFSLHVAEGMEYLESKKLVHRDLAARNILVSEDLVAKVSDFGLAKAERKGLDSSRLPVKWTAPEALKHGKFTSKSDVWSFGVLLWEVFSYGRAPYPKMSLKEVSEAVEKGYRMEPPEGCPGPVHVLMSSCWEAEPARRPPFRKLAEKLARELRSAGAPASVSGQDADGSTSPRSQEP
Chain of Serine/threonine-protein kinase PLK1 (Homo sapiens) (P53350 whole entry): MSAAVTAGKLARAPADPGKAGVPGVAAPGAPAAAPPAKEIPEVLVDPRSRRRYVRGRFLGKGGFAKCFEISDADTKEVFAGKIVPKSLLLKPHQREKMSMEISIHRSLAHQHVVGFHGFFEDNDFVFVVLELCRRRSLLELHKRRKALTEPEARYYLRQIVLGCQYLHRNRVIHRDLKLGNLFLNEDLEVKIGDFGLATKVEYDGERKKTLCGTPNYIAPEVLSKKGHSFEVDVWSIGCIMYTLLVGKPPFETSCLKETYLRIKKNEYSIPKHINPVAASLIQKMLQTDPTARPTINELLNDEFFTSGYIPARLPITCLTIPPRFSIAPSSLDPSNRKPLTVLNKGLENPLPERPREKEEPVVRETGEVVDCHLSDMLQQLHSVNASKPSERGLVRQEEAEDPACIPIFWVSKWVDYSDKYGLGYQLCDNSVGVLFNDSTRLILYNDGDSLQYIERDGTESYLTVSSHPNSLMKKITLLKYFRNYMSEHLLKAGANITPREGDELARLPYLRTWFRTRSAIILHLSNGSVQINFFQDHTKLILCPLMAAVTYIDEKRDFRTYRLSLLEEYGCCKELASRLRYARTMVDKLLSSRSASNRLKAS
Chain of Serine/threonine-protein kinase 3 (Homo sapiens) (Q13188 whole entry): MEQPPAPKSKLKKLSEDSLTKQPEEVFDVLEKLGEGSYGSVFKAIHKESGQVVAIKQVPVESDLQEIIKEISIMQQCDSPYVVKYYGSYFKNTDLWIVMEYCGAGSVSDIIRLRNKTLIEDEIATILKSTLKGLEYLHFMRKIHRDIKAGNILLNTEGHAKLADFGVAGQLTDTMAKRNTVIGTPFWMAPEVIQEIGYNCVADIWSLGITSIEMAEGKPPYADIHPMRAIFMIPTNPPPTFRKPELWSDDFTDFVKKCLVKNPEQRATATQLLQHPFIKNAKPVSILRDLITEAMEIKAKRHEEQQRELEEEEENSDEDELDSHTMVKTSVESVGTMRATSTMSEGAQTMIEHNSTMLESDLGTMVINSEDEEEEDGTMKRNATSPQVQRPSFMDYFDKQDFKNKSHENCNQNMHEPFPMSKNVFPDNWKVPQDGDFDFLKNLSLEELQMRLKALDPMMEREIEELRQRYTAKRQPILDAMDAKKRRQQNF
Chain of Tyrosine-protein kinase Fgr (Homo sapiens) (P09769 2-529 limits assumed): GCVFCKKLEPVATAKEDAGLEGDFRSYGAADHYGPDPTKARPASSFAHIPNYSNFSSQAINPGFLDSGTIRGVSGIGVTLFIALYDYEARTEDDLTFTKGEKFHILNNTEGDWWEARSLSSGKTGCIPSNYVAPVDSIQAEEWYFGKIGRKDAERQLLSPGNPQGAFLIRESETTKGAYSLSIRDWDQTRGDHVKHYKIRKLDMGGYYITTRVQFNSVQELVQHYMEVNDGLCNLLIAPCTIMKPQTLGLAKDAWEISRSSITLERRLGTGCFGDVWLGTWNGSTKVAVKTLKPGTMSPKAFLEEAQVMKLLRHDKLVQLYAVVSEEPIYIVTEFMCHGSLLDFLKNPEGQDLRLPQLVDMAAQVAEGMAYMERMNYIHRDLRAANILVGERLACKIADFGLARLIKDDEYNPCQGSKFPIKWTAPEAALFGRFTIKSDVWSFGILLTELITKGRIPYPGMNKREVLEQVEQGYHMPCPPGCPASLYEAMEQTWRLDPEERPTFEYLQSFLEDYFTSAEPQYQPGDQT
Chain of Calcium/calmodulin-dependent protein kinase kinase 2 (Homo sapiens) (Q96RR4 2-588 limits assumed): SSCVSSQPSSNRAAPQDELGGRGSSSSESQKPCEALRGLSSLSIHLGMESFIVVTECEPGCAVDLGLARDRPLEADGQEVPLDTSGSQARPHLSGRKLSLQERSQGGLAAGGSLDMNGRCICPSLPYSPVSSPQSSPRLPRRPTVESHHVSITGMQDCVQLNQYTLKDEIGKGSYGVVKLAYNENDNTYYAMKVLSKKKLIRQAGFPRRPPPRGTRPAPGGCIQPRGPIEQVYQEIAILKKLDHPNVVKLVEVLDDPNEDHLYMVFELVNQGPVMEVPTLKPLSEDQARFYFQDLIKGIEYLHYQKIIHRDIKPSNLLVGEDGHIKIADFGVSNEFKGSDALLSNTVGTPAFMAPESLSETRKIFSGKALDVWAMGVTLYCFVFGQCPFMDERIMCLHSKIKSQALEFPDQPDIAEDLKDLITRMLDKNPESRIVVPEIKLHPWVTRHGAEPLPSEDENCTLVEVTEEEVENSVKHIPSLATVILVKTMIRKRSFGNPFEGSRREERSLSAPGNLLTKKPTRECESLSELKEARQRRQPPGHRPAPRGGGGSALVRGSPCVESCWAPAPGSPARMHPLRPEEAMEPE
Chain of 5-hydroxytryptamine receptor 1D (Homo sapiens) (P28221 whole entry): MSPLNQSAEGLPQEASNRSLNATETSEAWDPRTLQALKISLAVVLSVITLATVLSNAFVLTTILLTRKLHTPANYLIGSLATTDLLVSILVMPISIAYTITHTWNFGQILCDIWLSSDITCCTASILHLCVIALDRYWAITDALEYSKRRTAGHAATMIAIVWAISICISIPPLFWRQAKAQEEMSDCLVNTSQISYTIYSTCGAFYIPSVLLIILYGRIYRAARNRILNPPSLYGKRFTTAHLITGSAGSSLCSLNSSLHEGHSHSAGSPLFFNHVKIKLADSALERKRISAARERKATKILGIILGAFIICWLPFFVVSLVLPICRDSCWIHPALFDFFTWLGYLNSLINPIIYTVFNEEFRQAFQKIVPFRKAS

`CN([C@@H]1CCc2c(CC(=O)O)c3ccccc3n2C1)S(=O)(=O)c1ccc(F)cc1` [MK-7246] showed a residual activity [1] of 100%, a residual activity [2] of 100% and a residual activity [3] of 100%. The residual activity [4] was 91%, the residual activity [5] was 100% and the residual activity [6] was 100%. It also gave a residual activity [7] of 94%, a residual activity [8] of 100% and a residual activity [9] of 100%. For the same compound, the residual activity [10] was 100%, the residual activity [11] was 100% and the residual activity [12] was 100%. For the same compound, the residual activity [13] was 93%, the residual activity [14] was 100% and the residual activity [15] was 100%. The residual activity [16] was 93%, the residual activity [17] was 91% and the residual activity [18] was 78%. For the same compound, the residual activity [19] was 88%, the residual activity [20] was 86% and the residual activity [21] was 98%. The residual activity [22] was 100%, the residual activity [23] was 100% and the residual activity [24] was 100%. It also gave a residual activity [25] of 100%, a residual activity [26] of 100% and a residual activity [27] of 100%. It also gave a residual activity [28] of 100%, a residual activity [29] of 100% and a residual activity [30] of 98%. It also gave a residual activity [31] of 94%, a residual activity [32] of 100% and a residual activity [33] of 100%. The residual activity [34] was 100%, the residual activity [35] was 100% and the residual activity [36] was 100%. The residual activity [37] was 80%, the residual activity [38] was 100% and the residual activity [39] was 100%. The residual activity [40] was 100%, the inhibition [41] was 35.6% and the inhibition [42] was -6.38%. For the same compound, the inhibition [43] was -3.85%, the inhibition [44] was 12.7% and the inhibition [45] was 6.97%. It also gave an inhibition [46] of 54%.
`CN([C@@H]1CCc2c(CC(=O)O)c3cc(S(C)(=O)=O)ccc3n2C1)S(=O)(=O)c1ccc(F)cc1` showed a residual activity [1] of 100%, a residual activity [2] of 98% and a residual activity [3] of 100%. The residual activity [4] was 100%, the residual activity [5] was 100% and the residual activity [6] was 100%. For the same compound, the residual activity [7] was 100%, the residual activity [8] was 100% and the residual activity [9] was 93%. It also gave a residual activity [10] of 100%, a residual activity [11] of 100% and a residual activity [12] of 82%. The residual activity [13] was 91%, the residual activity [14] was 100% and the residual activity [15] was 100%. It also gave a residual activity [16] of 84%, a residual activity [17] of 76% and a residual activity [18] of 71%. For the same compound, the residual activity [19] was 70%, the residual activity [20] was 84% and the residual activity [21] was 100%. It also gave a residual activity [22] of 100%, a residual activity [23] of 75% and a residual activity [24] of 98%. It also gave a residual activity [25] of 100%, a residual activity [26] of 84% and a residual activity [27] of 100%. For the same compound, the residual activity [28] was 100%, the residual activity [29] was 100% and the residual activity [30] was 93%. The residual activity [31] was 87%, the residual activity [32] was 87% and the residual activity [33] was 100%. It also gave a residual activity [34] of 100%, a residual activity [35] of 99% and a residual activity [36] of 100%. For the same compound, the residual activity [37] was 79%, the residual activity [38] was 100% and the residual activity [39] was 79%. For the same compound, the residual activity [40] was 100%, the inhibition [41] was 2.6% and the inhibition [42] was 0.539%. The inhibition [43] was -2.99%, the inhibition [44] was -2.39% and the inhibition [45] was -6.18%. It also gave an inhibition [46] of 41.4%.

— ChEMBL document CHEMBL4507290 (2021)
